# Laboratory results as given in ChEMBL document CHEMBL1129300, “Conformationally constrained analogues of diacylglycerol. 12. Ultrapotent protein kinase C ligands based on a chiral 4,4-disubstituted heptono-1,4-lactone template” (J Med Chem, 1996).
# Target: Protein kinase C alpha type (Homo sapiens, UniProt P17252)
# Assay: Displacement of [3H-20]-PDBU from recombinant Protein kinase C alpha
row,Ki [nM],Compound
1,13,CCCCCCCC/C=C\CCCCCCCC/C=C1\C[C@@](CO)(COC(C)=O)OC1=O
2,20,CCCCCCCC/C=C\CCCCCCCC/C=C1\C[C@](/C=C/C(=O)OC)(CO)OC1=O
3,12,CCCCCCCC/C=C\CCCCCCCC/C=C1/C[C@@](CO)(COC(C)=O)OC1=O
4,11,CCCCCCCC/C=C\CCCCCCCC/C=C1/C[C@](/C=C/C(=O)OC)(CO)OC1=O
